Values after ≈ are worked out from the molar mass of the structure shown.
Assays:
Format in all cases: cell-based
Escherichia coli DC-2 = assay: in vitro antibacterial MIC, agar dilution; settings: organism code SS; 35-37° C., 20 to 24 hours; unit assumed
Protocol: (§1) Representative compounds of the present invention were assayed in vitro for antibacterial activity as follows: Twelve petri dishes containing successive aqueous dilutions of the test compound mixed with 10 mL of sterilized Brain Heart Infusion (BHI) agar (Difco 0418-01-5) were prepared. Each plate was inoculated with 1:100 (or 1:10 for slow-growing strains, such as Micrococcus and Streptococcus) dilutions of up to 32 different microorganisms, using a Steers replicator block. […] In addition, a control plate, using BHI agar containing no test compound, was prepared and incubated at the beginning and end of each test.
(§2) An additional plate containing a compound having known susceptibility patterns for the organisms being tested and belonging to the same antibiotic class as the test compound was also prepared and incubated as a further control, as well as to provide test-to-test comparability.
(§3) After incubation, each plate was visually inspected. The minimum inhibitory concentration (MIC) was defined as the lowest concentration of drug yielding no growth, a slight haze, or sparsely isolated colonies on the inoculum spot as compared to the growth control.

[1] = test system: Staphylococcus aureus NCTC10649M; assay: in vitro antibacterial MIC, agar dilution; settings: organism code EE; 35-37° C., 20 to 24 hours; unit assumed
Protocol: as §1, §2, §3

[2] = test system: Staphylococcus aureus A-5278; assay: in vitro antibacterial MIC, agar dilution; settings: organism code CC; 35-37° C., 20 to 24 hours; unit assumed
Protocol: as §1, §2, §3

[3] = test system: Micrococcus luteus ATCC 4698; assay: in vitro antibacterial MIC, agar dilution; settings: organism code PP; 35-37° C., 20 to 24 hours; unit assumed
Protocol: as §1, §2, §3

Escherichia coli SS = assay: in vitro antibacterial MIC, agar dilution; settings: organism code RR; 35-37° C., 20 to 24 hours; unit assumed
Protocol: as §1, §2, §3

[4] = test system: Streptococcus Pheumoniae 5979; assay: in vitro antibacterial MIC, agar dilution; settings: organism code ZZ; 35-37° C., 20 to 24 hours; unit assumed
Protocol: as §1, §2, §3

[5] = test system: Streptococcus Pheumoniae 5649; assay: in vitro antibacterial MIC, agar dilution; settings: organism code ZZA; 35-37° C., 20 to 24 hours; unit assumed
Protocol: as §1, §2, §3

[6] = test system: Streptococcus pyogenes 930; assay: in vitro antibacterial MIC, agar dilution; settings: organism code MM; 35-37° C., 20 to 24 hours; unit assumed
Protocol: as §1, §2, §3

[7] = test system: Micrococcus luteus ATCC 9341; assay: in vitro antibacterial MIC, agar dilution; settings: organism code OO; 35-37° C., 20 to 24 hours; unit assumed
Protocol: as §1, §2, §3

[8] = test system: Streptococcus Pheumoniae GYR 1171; assay: in vitro antibacterial MIC, agar dilution; settings: organism code YY; 35-37° C., 20 to 24 hours; unit assumed
Protocol: as §1, §2, §3

[9] = test system: Staphylococcus epidermidis 3519; assay: in vitro antibacterial MIC, agar dilution; settings: organism code HH; 35-37° C., 20 to 24 hours; unit assumed
Protocol: as §1, §2, §3

[10] = test system: Streptococcus pyogenes PIU 2548; assay: in vitro antibacterial MIC, agar dilution; settings: organism code NN; 35-37° C., 20 to 24 hours; unit assumed
Protocol: as §1, §2, §3

[11] = test system: Enterococcus faecium ATCC 8Q43; assay: in vitro antibacterial MIC, agar dilution; settings: organism code II; 35-37° C., 20 to 24 hours; unit assumed
Protocol: as §1, §2, §3

[12] = test system: Mycobacterium smegmatis ATCC 114; assay: in vitro antibacterial MIC, agar dilution; settings: organism code UU; 35-37° C., 20 to 24 hours; unit assumed
Protocol: as §1, §2, §3

[13] = test system: Staphylococcus aureus CMX 553; assay: in vitro antibacterial MIC, agar dilution; settings: organism code FF; 35-37° C., 20 to 24 hours; unit assumed
Protocol: as §1, §2, §3

Escherichia coli JUHL = assay: in vitro antibacterial MIC, agar dilution; settings: organism code QQ; 35-37° C., 20 to 24 hours; unit assumed
Protocol: as §1, §2, §3

[14] = test system: Streptococcus agalactiae CMX 508; assay: in vitro antibacterial MIC, agar dilution; settings: organism code KK; 35-37° C., 20 to 24 hours; unit assumed
Protocol: as §1, §2, §3

[15] = test system: Haemophilis Influenzae DILL AMP R; assay: in vitro antibacterial MIC, agar dilution; settings: organism code WW; 35-37° C., 20 to 24 hours; unit assumed
Protocol: as §1, §2, §3

[16] = test system: Staphylococcus aureus A5177; assay: in vitro antibacterial MIC, agar dilution; settings: organism code BB; 35-37° C., 20 to 24 hours; unit assumed
Protocol: as §1, §2, §3

[17] = test system: Streptococcus Pheumoniae ATCC6303; assay: in vitro antibacterial MIC, agar dilution; settings: organism code XX; 35-37° C., 20 to 24 hours; unit assumed
Protocol: as §1, §2, §3

[18] = test system: Staphylococcus aureus CMX 642A; assay: in vitro antibacterial MIC, agar dilution; settings: organism code DD; 35-37° C., 20 to 24 hours; unit assumed
Protocol: as §1, §2, §3

[19] = test system: Streptococcus pyogenes EES61; assay: in vitro antibacterial MIC, agar dilution; settings: organism code LL; 35-37° C., 20 to 24 hours; unit assumed
Protocol: as §1, §2, §3

[20] = test system: Staphylococcus aureus 1775; assay: in vitro antibacterial MIC, agar dilution; settings: organism code GG; 35-37° C., 20 to 24 hours; unit assumed
Protocol: as §1, §2, §3

[21] = test system: Streptococcus bovis A-5169; assay: in vitro antibacterial MIC, agar dilution; settings: organism code JJ; 35-37° C., 20 to 24 hours; unit assumed
Protocol: as §1, §2, §3

[22] = test system: Nocardia Asteroides ATCC9970; assay: in vitro antibacterial MIC, agar dilution; settings: organism code VV; 35-37° C., 20 to 24 hours; unit assumed
Protocol: as §1, §2, §3

[23] = test system: Staphylococcus aureus ATCC 6538P; assay: in vitro antibacterial MIC, agar dilution (BHI agar, Steers replicator); settings: organism code AA; 35-37° C., 20 to 24 hours; unit assumed
Protocol: as §1, §2, §3

Candida albicans CCH 442 = assay: in vitro MIC, agar dilution; settings: organism code TT; 35-37° C., 20 to 24 hours; unit assumed
Protocol: as §1, §2, §3

| SMILES | MIC (Escherichia coli DC-2) | MIC [1] | MIC [2] | MIC [3] | MIC (Escherichia coli SS) | MIC [4] | MIC [5] | MIC [6] | MIC [7] | MIC [8] | MIC [9] | MIC [10] | MIC [11] | MIC [12] | MIC [13] | MIC (Escherichia coli JUHL) | MIC [14] | MIC [15] | MIC [16] | MIC [17] | further results |
| --- | --- | --- | --- | --- | --- | --- | --- | --- | --- | --- | --- | --- | --- | --- | --- | --- | --- | --- | --- | --- | --- |
| CC[C@H]1OC(=O)[C@H](C)C(=O)[C@H](C)[C@@H](O[C@@H]2O[C@H](C)C[C@H](N(C)C)[C@H]2O)[C@@]2(C)C[C@@H](C)C(=O)[C@H](C)[C@H]3N(CCNC(=O)c4ccccc4C=CCO2)C(=O)O[C@]13C [Example 21] | > 100 µg/mL | 3.1 µg/mL (≈ 3.95 µM) | > 100 µg/mL | 0.39 µg/mL (≈ 0.497 µM) | 1.56 µg/mL (≈ 1.99 µM) | > 128 µg/mL | 2 µg/mL (≈ 2.55 µM) | > 100 µg/mL | 0.2 µg/mL (≈ 0.255 µM) | 0.25 µg/mL (≈ 0.319 µM) | 1.56 µg/mL (≈ 1.99 µM) | 0.78 µg/mL (≈ 0.995 µM) | 0.2 µg/mL (≈ 0.255 µM) | 6.2 µg/mL (≈ 7.91 µM) | 3.1 µg/mL (≈ 3.95 µM) | > 100 µg/mL | 0.1 µg/mL (≈ 0.128 µM) | 64 µg/mL (≈ 81.6 µM) | 1.56 µg/mL (≈ 1.99 µM) | 0.25 µg/mL (≈ 0.319 µM) | MIC [18]: 3.1 µg/mL (≈ 3.95 µM); MIC [19]: 0.1 µg/mL (≈ 0.128 µM); MIC [20]: > 100 µg/mL; MIC [21]: 0.1 µg/mL (≈ 0.128 µM); MIC [22]: 0.39 µg/mL (≈ 0.497 µM); MIC [23]: 1.56 µg/mL (≈ 1.99 µM); MIC (Candida albicans CCH 442): > 100 µg/mL |
| CC[C@H]1OC(=O)[C@H](C)[C@@H](O[C@H]2C[C@@](C)(OC)[C@@H](O)[C@H](C)O2)[C@H](C)[C@@H](O[C@@H]2O[C@H](C)C[C@H](N(C)C)[C@H]2O)[C@@]2(C)C[C@@H](C)C(=O)[C@H](C)[C@H]3N(CC(O)CCCCO2)C(=O)O[C@]13C (stereo partly drawn) [Example 22] | > 100 µg/mL | 1.56 µg/mL (≈ 1.82 µM) | > 100 µg/mL | 0.39 µg/mL (≈ 0.455 µM) | 0.78 µg/mL (≈ 0.91 µM) | > 128 µg/mL | 16 µg/mL (≈ 18.7 µM) | > 100 µg/mL | 0.1 µg/mL (≈ 0.117 µM) | 0.06 µg/mL (≈ 0.07 µM) | 1.56 µg/mL (≈ 1.82 µM) | 12.5 µg/mL (≈ 14.6 µM) | 0.2 µg/mL (≈ 0.233 µM) | 0.78 µg/mL (≈ 0.91 µM) | 1.56 µg/mL (≈ 1.82 µM) | 100 µg/mL (≈ 117 µM) | 0.1 µg/mL (≈ 0.117 µM) | 4 µg/mL (≈ 4.67 µM) | 12.5 µg/mL (≈ 14.6 µM) | 0.06 µg/mL (≈ 0.07 µM) | MIC [18]: 1.56 µg/mL (≈ 1.82 µM); MIC [19]: 0.1 µg/mL (≈ 0.117 µM); MIC [20]: > 100 µg/mL; MIC [21]: 0.05 µg/mL (≈ 0.0583 µM); MIC [22]: 0.1 µg/mL (≈ 0.117 µM); MIC [23]: 1.56 µg/mL (≈ 1.82 µM); MIC (Candida albicans CCH 442): > 100 µg/mL |
| CC[C@H]1OC(=O)[C@H](C)[C@@H](O[C@H]2C[C@@](C)(OC)[C@@H](O)[C@H](C)O2)[C@H](C)[C@@H](O[C@@H]2O[C@H](C)C[C@H](N(C)C)[C@H]2O)[C@@]2(C)C[C@@H](C)C(=O)[C@H](C)[C@H]3N(CCNC(=O)c4ccccc4CC=CCO2)C(=O)O[C@]13C [Example 24] | > 100 µg/mL | 1.56 µg/mL (≈ 1.63 µM) | > 100 µg/mL | 1.56 µg/mL (≈ 1.63 µM) | 6.2 µg/mL (≈ 6.47 µM) | 128 µg/mL (≈ 134 µM) | 16 µg/mL (≈ 16.7 µM) | > 100 µg/mL | 0.1 µg/mL (≈ 0.104 µM) | 0.03 µg/mL (≈ 0.0313 µM) | 1.56 µg/mL (≈ 1.63 µM) | 12.5 µg/mL (≈ 13 µM) | 0.2 µg/mL (≈ 0.209 µM) | 0.39 µg/mL (≈ 0.407 µM) | 0.78 µg/mL (≈ 0.814 µM) | 100 µg/mL (≈ 104 µM) | 0.1 µg/mL (≈ 0.104 µM) | 16 µg/mL (≈ 16.7 µM) | 25 µg/mL (≈ 26.1 µM) | 0.03 µg/mL (≈ 0.0313 µM) | MIC [18]: 1.56 µg/mL (≈ 1.63 µM); MIC [19]: 0.1 µg/mL (≈ 0.104 µM); MIC [20]: > 100 µg/mL; MIC [21]: 0.1 µg/mL (≈ 0.104 µM); MIC [22]: 0.1 µg/mL (≈ 0.104 µM); MIC [23]: 0.78 µg/mL (≈ 0.814 µM); MIC (Candida albicans CCH 442): > 100 µg/mL |

— US6046171A, “6,11-bridged erythromycin derivatives” (priority 1998, dated 2000)
